Assay results: article PMC4669759 (Cell Death & Disease, 2015)
pIC50, pKi: −log10 of the molar value. Where “and” joins values, the source holds several entries; their conditions need not be identical. Equal values may be shown once.

How the values were obtained:
MCL-1 = MCL-1 (Homo sapiens, UniProt Q07820); assay: TR-FRET binding affinity assay, MCL-1
Procedure: TR-FRET-binding affinity assays were performed for BCL-2, BCL-XL, and MCL-1 in 4.52 mM monobasic potassium phosphate, 15.48 mM dibasic potassium phosphate, 1 mM sodium EDTA, 0.05% Pluronic F-68 detergent, 50 mM sodium chloride, and 1 mM DTT (pH 7.5) as described previously for BCL-XL.[6] For MCL-1 assays, GST-tagged MCL-1 (1 nM) was mixed with 100 nM f-Bak, 1 nM Tb-labeled anti-GST antibody, and compound at room temperature (RT) for 60 min. Fluorescence was measured on an Envision plate reader (Perkin-Elmer, Waltham, MA, USA) using a 340/35 nm excitation filter and 520/525 (f-Bak) and 495/510 nm (Tb-labeled anti-GST antibody) emission filters.

MCL-1–NOXA interactions = target: T1, MCL-1–NOXA interactions (Homo sapiens, UniProt Q07820); assay: Mammalian two-hybrid assay, MCL-1–NOXA, HeLa cells; format: cell-based; settings: 24 h, luciferase two-hybrid
T1 construct: expressed in transfected cells; host or cells: HeLa cells stably expressing a GAL4-luciferase reporter
Procedure: (a) H929 cells were treated with increasing concentrations of A-1210477 for 4 h. […] All data represent the mean of triplicate experiments, with error bars indicating the S.D. (b) Quantitative measurement of protein–protein interactions using a luciferase-based mammalian two-hybrid assay. […] All data represent the means of triplicate experiments, with error bars indicating the S.Ds.
HeLa cells stably expressing a GAL4-luciferase reporter were seeded into 10 cm dishes at 5 × 10^5 cells per plate. In all, 24 μg of a plasmid expressing both the ‘bait' and ‘prey' fusion proteins (GAL4DBD-BIM and VP16AD-BCL-2, GAL4DBD-BCL-XL and VP16AD- BCL-XS, or GAL4DBD-MCL-1 and VP16AD-NOXA, respectively) were mixed with 1.5 ml OptiMEM (Invitrogen). Separately, 24 μl Lipofectamine 2000 (Invitrogen) were mixed with 1.5 ml OptiMEM. Both solutions were incubated for 5 min (RT) and then mixed together for 20 min. Three milliliters of the mixture was added to cells in 12 ml culture medium lacking antibiotics, incubated at 37 °C for 24 h, and then transferred to 96-well plates at 20 000 cells per well. Compounds were added in half-log dilutions, starting from 1 μM and ending at 0.0001 μM for 24 h, and luciferase activity was assessed using ONE-Glo reagent (Promega). All data were plotted as the percentage of complex remaining relative to untreated controls.

[1] = tested on: MCL-1(3B)–BIMS(2A)ΔC complexes; assay: Live cell redistribution assay, eGFP-MCL-1(3B) and mCherry-BIMS(2A)ΔC, T-REx-293 cells; format: cell-based
Description: To further rule out potential artifacts associated with lysate detergents that can influence interactions between BCL-2 family proteins,[47] we employed a recently described real-time imaging method to assess the effects on BCL-2 family complexes in live cells.[48] Briefly, interacting pairs of BCL-2 family proteins are expressed as fluorescent fusion proteins at stoichiometric levels from a bicistronic expression module integrated into a single site of the genome in T-REx-293 cells. Under basal conditions, both proteins localize primarily to the mitochondria, where the anti-apoptotic proteins (enhanced green fluorescent protein (eGFP)-BCL-2, eGFP-BCL-XL, or eGFP-MCL-1(3B)) sequester their pro-apoptotic counterparts (mCherry-BAD or mCherry-BIMS(2A)ΔC, the latter being a specific binder of MCL-1[48], [49]). Disruption of these complexes can be tracked by measuring the amount of mCherry-labeled BH3-only protein localized specifically to the mitochondria. […]
(§1) Figure 3 A-1210477 inhibits MCL-1-BIM complexes in live cells. […] The decrease in amount of mCherry-BH3 protein localized to the mitochondria was quantified as a function of time as described in the Materials and Methods, normalized to DMSO control, and fitted to a single exponential decay. Each data point represents the mean change in intensity calculated from 10 fields of view, with error bars indicating the S.E.M. (b) T-REx-293 cells stably expressing eGFP-MCL-1(3B) and mCherry-BIMS(2A)ΔC were treated with 50 μM ABT-737 or increasing concentrations (1–25 μM) A-1210477 for 100 min. The decrease in amount of mCherry-BIMS(2A)ΔC localized to the mitochondria was quantified as in panel (a). (c) Representative fluorescence microscopic images of T-REx-293 cells stably expressing eGFP-BCL-2 family and interacting mCherry-BH3-only proteins before and after 300 min of treatment with 10 μM A-1210477 or (d) ABT-737. […]
Experiments were carried out as detailed previously.[48] […] Therefore, the entire cell was identified with a single intensity threshold applied to the eGFP fluorescence, excluding areas identified as mitochondria. […]

BCL-XL–BAD complexes = target: T2, BCL-XL–BAD complexes (Homo sapiens, UniProt Q07817); assay: Live cell redistribution assay, eGFP-BCL-XL and mCherry-BAD, T-REx-293 cells; format: cell-based; settings: 10 μM, 300 min
T2 construct: expressed in transfected cells; host or cells: T-REx-293, bicistronic expression module integrated at a single genomic site
Description: To further rule out potential artifacts associated with lysate detergents that can influence interactions between BCL-2 family proteins,[47] we employed a recently described real-time imaging method to assess the effects on BCL-2 family complexes in live cells.[48] Briefly, interacting pairs of BCL-2 family proteins are expressed as fluorescent fusion proteins at stoichiometric levels from a bicistronic expression module integrated into a single site of the genome in T-REx-293 cells. […]
as §1

MCL-1, sequence (Q07820 whole entry): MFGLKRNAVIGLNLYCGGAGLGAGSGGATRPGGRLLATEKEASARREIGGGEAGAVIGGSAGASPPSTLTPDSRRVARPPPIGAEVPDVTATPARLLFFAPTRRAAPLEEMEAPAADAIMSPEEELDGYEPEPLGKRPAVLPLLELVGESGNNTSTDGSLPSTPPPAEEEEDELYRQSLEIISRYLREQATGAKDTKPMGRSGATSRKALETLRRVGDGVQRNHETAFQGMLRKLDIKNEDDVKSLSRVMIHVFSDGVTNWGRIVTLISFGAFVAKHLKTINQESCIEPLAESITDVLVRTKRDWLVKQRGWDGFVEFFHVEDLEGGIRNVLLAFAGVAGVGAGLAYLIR
T1 sequence (Q07820 whole entry, the tested form may be a part): as the sequence (Q07820 whole entry) above
T2 sequence (Q07817 whole entry, one chain of several): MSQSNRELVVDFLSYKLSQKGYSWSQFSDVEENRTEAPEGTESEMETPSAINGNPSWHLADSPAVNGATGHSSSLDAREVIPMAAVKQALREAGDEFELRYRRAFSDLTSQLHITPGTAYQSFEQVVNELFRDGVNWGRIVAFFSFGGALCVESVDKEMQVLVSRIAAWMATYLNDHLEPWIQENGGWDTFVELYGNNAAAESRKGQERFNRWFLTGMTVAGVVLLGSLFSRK

## Cc1nn(C)c(COc2ccc(N3CCN(S(=O)(=O)N(C)C)CC3)cc2)c1-c1cccc2c(CCCOc3cccc4ccccc34)c(C(=O)O)n(CCN3CCOCC3)c12 [A-1210477]
MCL-1
  pKi: 9.30 to 9.40 and 9.34
MCL-1–NOXA interactions
  pIC50: ~6.00
[1]; T-REx-293 cells expressing MCL-1(3B)
  redistribution of mCherry-BIMS(2A)ΔC from mitochondria: induced dose-dependent redistribution of BIMS(2A)ΔC to the cytosol
[1]; T-REx-293 cells, 100 min
  lowest concentration at which BIMS(2A)ΔC redistribution could be observed: 1 µM
BCL-XL–BAD complexes
  redistribution of mCherry-BAD associated with BCL-XL: no effect
